Data: ChEMBL document CHEMBL6182931, “Chemical Evolution of Aplithianine Class of Serine/Threonine Kinase Inhibitors” (J Med Chem, 2025)
The source made the active and inactive calls. The rule behind the calls is not given here.

Experiments:
[1] = Inhibition of DNAJB1-PKAcalpha (unknown origin) using biotinylated-peptide substrate CREB incubated for 45 mins in presence of ATP and cAMP by ELISA; parameters: species or system Homo sapiens
[2] = tested on: OVCAR-4; experiment: Antiproliferative activity against human OVCAR-4 cells assessed as growth inhibition; assay type: functional, cell-based
[3] = tested on: LOX IMVI; experiment: Antiproliferative activity against human LOX IMVI cells assessed as growth inhibition; assay type: functional
[4] = tested on: SR; experiment: Antiproliferative activity against human SR cells assessed as growth inhibition; assay type: functional
[5] = tested on: MDA-MB-468; experiment: Antiproliferative activity against human MDA-MB-468 cells assessed as growth inhibition; assay type: functional, cell-based
[6] = tested on: NCI/ADR-RES; experiment: Antiproliferative activity against human NCI/ADR-RES cells assessed as growth inhibition; assay type: functional, cell-based
[7] = tested on: MOLT-4; experiment: Antiproliferative activity against human MOLT-4 cells assessed as growth inhibition; assay type: functional

Row | SMILES | IC50 [1] | further results
1 | CN(C[C@H]1CCCCN1)C(=O)C1=CN(c2ncnc3[nH]ccc23)CCS1 | 420 nM | 
2 | O=C(C1=CN(c2ncnc3[nH]ccc23)CCS1)N1C[C@@H]2CCCN[C@@H]2C1 | 1100 nM | 
3 | CN(C[C@@H]1CCCCN1)C(=O)C1=CN(c2ncnc3[nH]ccc23)CCS1 | 1200 nM | 
4 | C[C@]1(N)CCCN(C(=O)C2=CN(c3ncnc4[nH]cnc34)CCS2)C1 | 2200 nM | 
5 | Cc1cc(N2C=C(c3ccnc4[nH]ccc34)SCC2)nc(N(C)C)n1 | 3000 nM | 
6 | CN[C@@H]1CCCN(C(=O)C2=CN(c3ncnc4[nH]ccc34)CCS2)C1 | 87 nM | 
7 | N[C@@H]1CCCN(C(=O)C2=CN(c3ccnc4[nH]ccc34)CCS2)C1 | 19 nM | 
8 | N[C@@H]1CCCN(C(=O)C2=CN(c3ncnc4[nH]ccc34)CCS2)C1 | 8 nM | 
9 | CN[C@@H]1CCCN(C(=O)C2=CN(c3ccnc4[nH]ccc34)CCS2)C1 | 570 nM | 
10 | O=C(N[C@H](c1ccccc1)[C@@H]1CCCN1)C1=CN(c2ncnc3[nH]ccc23)CCS1 | 640 nM | 
11 | C[C@@]1(N)CCCN(C(=O)C2=CN(c3ncnc4[nH]cnc34)CCS2)C1 | 62 nM | 
12 | N[C@H]1CCCC[C@H]1NC(=O)C1=CN(c2ncnc3[nH]ccc23)CCS1 | 2600 nM | 
13 | Cc1c[nH]c2nccc(N3C=C(C(=O)N4CCC[C@](C)(N)C4)SCC3)c12 | 500 nM | 
14 | O=C(N[C@H]1CCCNC1)C1=CN(c2ncnc3[nH]ccc23)CCS1 | 66 nM | 
15 | Cc1cc(N2C=C(c3ccnc4[nH]ccc34)SCC2)nc(C(C)(C)C)n1 | > 10000 nM | 
16 | CN[C@H]1CCCN(C(=O)C2=CN(c3ncnc4[nH]cnc34)CCS2)C1 | 770 nM | 
17 | O=C(N[C@H](c1ccccc1)[C@H]1CCCN1)C1=CN(c2ncnc3[nH]ccc23)CCS1 | 82 nM | 
18 | O=C(NC[C@@H]1CCCCN1)C1=CN(c2ncnc3[nH]ccc23)CCS1 | 660 nM | 
19 | NCCNC(=O)C1=CN(c2ccnc3[nH]ccc23)CCS1 | 160 nM | 
20 | Cc1c[nH]c2nccc(N3C=C(C(=O)N4CCC[C@@](C)(N)C4)SCC3)c12 | 43 nM | 
21 | N[C@H]1CCCN(C(=O)C2=CN(c3ncnc4[nH]ccc34)CCS2)C1 | 81 nM | 

Row | SMILES | IC50 [1] | further results
22 | FC(F)(F)COc1cc(N2C=C(c3ccnc4[nH]ccc34)SCC2)ncn1 | 820 nM | 
23 | C[C@@H]1[C@H](N)CCCN1C(=O)C1=CN(c2ncnc3[nH]ccc23)CCS1 | 200 nM | 
24 | N[C@@H]1c2ccccc2C[C@@H]1NC(=O)C1=CN(c2ncnc3[nH]ccc23)CCS1 | 410 nM | 
25 | C1=C(c2ccnc3[nH]ccc23)SCCN1c1cc(-c2ccsc2)ncn1 | 2200 nM | 
26 | CN[C@@H]1CCCN(C(=O)C2=CN(c3ncnc4[nH]cc(C)c34)CCS2)C1 | 50 nM | 
27 | NCCCCCNC(=O)C1=CN(c2ncnc3[nH]ccc23)CCS1 | 920 nM | 
28 | CN[C@@H]1CCCN(C(=O)C2=CN(c3ccnc4[nH]cc(C)c34)CCS2)C1 | 730 nM | 
29 | N[C@@H]1CCCC[C@H]1NC(=O)C1=CN(c2ncnc3[nH]ccc23)CCS1 | 2300 nM | 
30 | N[C@@H]1CCCCN(C(=O)C2=CN(c3ncnc4[nH]ccc34)CCS2)C1 | 130 nM | 
31 | CN[C@H]1CCCN(C(=O)C2=CN(c3ccnc4[nH]ccc34)CCS2)C1 | 270 nM | 
32 | NCCCCNC(=O)C1=CN(c2ncnc3[nH]ccc23)CCS1 | 210 nM | 
33 | C1=C(c2ccnc3[nH]ccc23)SCCN1c1cc(N2CCOCC2)ncn1 | 600 nM | 
34 | N[C@H]1CCN(C(=O)C2=CN(c3ncnc4[nH]ccc34)CCS2)C1 | 500 nM | 
35 | NC[C@H](NC(=O)C1=CN(c2ncnc3[nH]ccc23)CCS1)c1ccccc1 | 110 nM | 
36 | CC(=O)NCCNC(=O)C1=CN(c2ncnc3[nH]cnc23)CCS1 | > 10000 nM | 
37 | N[C@@H]1CCN(C(=O)C2=CN(c3ncnc4[nH]ccc34)CCS2)C1 | 98 nM | 
38 | NCCNC(=O)C1=CN(c2ncnc3[nH]cnc23)CCS1 | 1300 nM | 
39 | O=C(N[C@@H](c1ccccc1)[C@@H]1CCCN1)C1=CN(c2ncnc3[nH]ccc23)CCS1 | 13 nM | 
40 | C[C@@H]1CCN(C(=O)C2=CN(c3ncnc4[nH]ccc34)CCS2)C[C@@H]1N | 60 nM | 
41 | O=C(N[C@H]1CCNC1)C1=CN(c2ncnc3[nH]ccc23)CCS1 | 68 nM | 
42 | O=C(NC[C@H]1CCCCN1)C1=CN(c2ncnc3[nH]ccc23)CCS1 | 680 nM | 

Row | SMILES | IC50 [1] | further results
43 | CN[C@H]1CCCN(C(=O)C2=CN(c3ncnc4[nH]cc(C)c34)CCS2)C1 | 400 nM | 
44 | C1=C(c2ccnc3[nH]ccc23)SCCN1c1cc(OCc2ccccc2)ncn1 | 330 nM | 
45 | O=C(NCCNC(=O)c1ccccc1)C1=CN(c2ncnc3[nH]cnc23)CCS1 | > 10000 nM | 
46 | CN[C@@H]1CCCN(C(=O)C2=CN(c3ncnc4[nH]cnc34)CCS2)C1 | 260 nM | 
47 | CN[C@H]1CCCN(C(=O)C2=CN(c3ccnc4[nH]cc(C)c34)CCS2)C1 | 530 nM | 
48 | N[C@H]1CCCN(C(=O)C2=CN(c3ccnc4[nH]ccc34)CCS2)C1 | 68 nM | 
49 | O=C(NC[C@@H]1CCCN1)C1=CN(c2ncnc3[nH]ccc23)CCS1 | 350 nM | 
50 | N[C@H]1CCCCN(C(=O)C2=CN(c3ncnc4[nH]ccc34)CCS2)C1 | 570 nM | 
51 | Cc1c[nH]c2nccc(N3C=C(C(=O)N4CCC[C@@H](N)C4)SCC3)c12 | 37 nM | 
52 | O=C(NC[C@H]1CCCN1)C1=CN(c2ncnc3[nH]ccc23)CCS1 | 380 nM | 
53 | C[C@H]1[C@H](N)CCCN1C(=O)C1=CN(c2ncnc3[nH]ccc23)CCS1 | 2000 nM | 
54 | C1=C(C2=CN(c3ncnc4[nH]ccc34)CCS2)CCNC1 |  | Activity [2]: inactive; GI50 [3]: > 1000 nM; Activity [4]: Active; Activity [5]: Active; Activity [6]: inactive; Activity [7]: Active
55 | Cc1c[nH]c2nccc(N3C=C(C(=O)N4CCC[C@H](N)C4)SCC3)c12 | 280 nM | 
56 | Cc1cc(N2C=C(c3ccnc4[nH]ccc34)SCC2)nc(N2CCCCC2)n1 | > 10000 nM | 
57 | O=C(N[C@@H]1CCNC1)C1=CN(c2ncnc3[nH]ccc23)CCS1 | 380 nM | 
58 | N[C@@H]1CCCC[C@@H]1NC(=O)C1=CN(c2ncnc3[nH]ccc23)CCS1 | 130 nM | 
59 | O=C(C1=CN(c2ncnc3[nH]ccc23)CCS1)N1C[C@H]2CCCN[C@H]2C1 | 310 nM | 
60 | C[C@H]1C[C@@H](N)CN(C(=O)C2=CN(c3ncnc4[nH]ccc34)CCS2)C1 | 6 nM | 
61 | O=C(N[C@@H]1CCCNC1)C1=CN(c2ncnc3[nH]ccc23)CCS1 | 690 nM | 
62 | C[C@]1(N)CCCN(C(=O)C2=CN(c3ccnc4[nH]ccc34)CCS2)C1 | 420 nM | 
63 | NCCCCCCNC(=O)C1=CN(c2ncnc3[nH]ccc23)CCS1 | 2900 nM | 

Continued, in another order:

Row | IC50 [1] | SMILES | further results
64 | 4500 nM | Cc1ncoc1C1=CN(c2ncnc3[nH]ccc23)CCS1 | 
65 | > 10000 nM | Cc1ncc(C2=CN(c3ncnc4[nH]cc(C)c34)CCS2)o1 | 
66 | 230 nM | O=C(C1=CN(c2ncnc3[nH]ccc23)CCS1)N1CCn2ccnc2C1 | 
67 | 37 nM | Fc1cncnc1N1C=C(c2ccnc3[nH]ccc23)SCC1 | 
68 | 180 nM | C[C@@H](N)CNC(=O)C1=CN(c2ncnc3[nH]ccc23)CCS1 | 
69 | 7900 nM | CC(C)(C)c1cc(N2C=C(c3ccnc4[nH]ccc34)SCC2)ncn1 | 
70 | > 10000 nM | C1=C(c2ccncn2)SCCN1c1ccnc2[nH]ccc12 | 
71 | 380 nM | CC(C)(N)CNC(=O)C1=CN(c2ncnc3[nH]ccc23)CCS1 | 
72 | 2700 nM | Cn1cc(C2=CN(c3ncnc4[nH]cnc34)CCS2)cn1 | 
73 | 1800 nM | Cc1c[nH]c2ncnc(N3C=C(c4cnco4)SCC3)c12 | 
74 | 2900 nM | C1=C(c2cnco2)SCCN1c1ncnc2[nH]ccc12 | 
75 | 2000 nM | C1=C(c2cc[nH]n2)SCCN1c1ncnc2[nH]ccc12 | 
76 | 1800 nM | C1=C(c2cnco2)SCCN1c1ncnc2[nH]cnc12 | 
77 | 180 nM | C[C@H](N)CNC(=O)C1=CN(c2ncnc3[nH]ccc23)CCS1 | 
78 | 370 nM | CN(CCN)C(=O)C1=CN(c2ncnc3[nH]ccc23)CCS1 | 
79 | > 10000 nM | C1=C(c2cccnc2)SCCN1c1ncnc2[nH]cnc12 | 
80 | 580 nM | O=C(C1=CN(c2ncnc3[nH]ccc23)CCS1)N1CCc2nc[nH]c2C1 | 
81 | 180 nM | NC1(CNC(=O)C2=CN(c3ncnc4[nH]ccc34)CCS2)CCC1 | 
82 | 110 nM | C[C@@H](CN)NC(=O)C1=CN(c2ncnc3[nH]ccc23)CCS1 | 
83 | 170 nM | NCC1(NC(=O)C2=CN(c3ncnc4[nH]ccc34)CCS2)CCC1 | 

Row | IC50 [1] | SMILES | further results
84 | > 10000 nM | Cc1c[nH]c2ncnc(N3C=C(c4cccnc4)SCC3)c12 | 
85 | 5200 nM | Cc1c[nH]c2ncnc(N3C=C(c4cc[nH]n4)SCC3)c12 | 
86 | > 10000 nM | Cc1ncoc1C1=CN(c2ncnc3[nH]cc(C)c23)CCS1 | 
87 | 1100 nM | CCCc1cc2c(N3C=C(c4ccnc5[nH]ccc45)SCC3)ncnc2s1 | 
88 | > 10000 nM | Cn1nccc1C1=CN(c2ncnc3[nH]ccc23)CCS1 | 
89 | > 10000 nM | Cc1ncc(C2=CN(c3ncnc4[nH]ccc34)CCS2)o1 | 
90 | 1400 nM | Cc1ncoc1C1=CN(c2ncnc3[nH]cnc23)CCS1 | 
91 | > 10000 nM | Cc1noc(C)c1C1=CN(c2ncnc3[nH]cc(C)c23)CCS1 | 
92 | 360 nM | NCCCNC(=O)C1=CN(c2ncnc3[nH]ccc23)CCS1 | 
93 | 6900 nM | Cc1noc(C)c1C1=CN(c2ncnc3[nH]cnc23)CCS1 | 
94 | > 10000 nM | Cc1c[nH]c2ncnc(N3C=C(c4ccnn4C)SCC3)c12 | 
95 | 5200 nM | Cc1ncc(C2=CN(c3ncnc4[nH]cnc34)CCS2)o1 | 
96 | > 10000 nM | Cc1noc(C)c1C1=CN(c2ncnc3[nH]ccc23)CCS1 | 
97 | 7200 nM | Cn1nccc1C1=CN(c2ncnc3[nH]cnc23)CCS1 | 
98 | 310 nM | CN[C@H]1CCCN(C(=O)C2=CN(c3ncnc4[nH]ccc34)CCS2)C1 | 
99 | 2400 nM | FC(F)(F)c1cc(N2C=C(c3ccnc4[nH]ccc34)SCC2)ncn1 | 
100 | 5500 nM | Cc1c[nH]c2ncnc(N3C=C(c4cnn(C)c4)SCC3)c12 | 
101 | 530 nM | C[C@H](CN)NC(=O)C1=CN(c2ncnc3[nH]ccc23)CCS1 | 
102 | > 10000 nM | C1=C(c2cc[nH]n2)SCCN1c1ncnc2[nH]cnc12 | 
103 | > 10000 nM | C1=C(c2cccnc2)SCCN1c1ncnc2[nH]ccc12 | 
